Laboratory results as given in ChEMBL document CHEMBL2074504, “Inhibition of P-glycoprotein-mediated drug transport: A unifying mechanism to explain the interaction between digoxin and quinidine [seecomments]” (Circulation, 1999).

What was measured:
[1] = molecular target: T1, ATP-dependent translocase ABCB1 (Mus musculus, UniProt P21447); assay: TP_TRANSPORTER: increase in kidney concentration in mdr1a(-/-) mouse; type: functional, organism-based; settings: in vivo
[2] = molecular target: T1, ATP-dependent translocase ABCB1; assay: TP_TRANSPORTER: increase in brain concentration in mdr1a(-/-) mouse; type: functional, organism-based; settings: in vivo
[3] = molecular target: T1, ATP-dependent translocase ABCB1; assay: TP_TRANSPORTER: increase in lung concentration in mdr1a(-/-) mouse; type: functional, organism-based; settings: in vivo
[4] = molecular target: T1, ATP-dependent translocase ABCB1; assay: TP_TRANSPORTER: increase in spleen concentration in mdr1a(-/-) mouse; type: functional, organism-based; settings: in vivo
[5] = molecular target: T1, ATP-dependent translocase ABCB1; assay: TP_TRANSPORTER: increase in small intestine concentration in mdr1a(-/-) mouse; type: functional, organism-based; settings: in vivo
[6] = molecular target: T1, ATP-dependent translocase ABCB1; assay: TP_TRANSPORTER: increase in liver concentration in mdr1a(-/-) mouse; type: functional, organism-based; settings: in vivo
[7] = molecular target: T1, ATP-dependent translocase ABCB1; assay: TP_TRANSPORTER: increase in plasma concentration in mdr1a(-/-) mouse; type: functional, organism-based; settings: in vivo
[8] = molecular target: ATP-dependent translocase ABCB1 (Homo sapiens, UniProt P08183); assay: TP_TRANSPORTER: transepithelial transport (basal to apical) in Caco-2 cells; type: functional, cell-based
ATP-dependent translocase ABCB1 (Homo sapiens, UniProt P08183), sequence (P08183 whole entry): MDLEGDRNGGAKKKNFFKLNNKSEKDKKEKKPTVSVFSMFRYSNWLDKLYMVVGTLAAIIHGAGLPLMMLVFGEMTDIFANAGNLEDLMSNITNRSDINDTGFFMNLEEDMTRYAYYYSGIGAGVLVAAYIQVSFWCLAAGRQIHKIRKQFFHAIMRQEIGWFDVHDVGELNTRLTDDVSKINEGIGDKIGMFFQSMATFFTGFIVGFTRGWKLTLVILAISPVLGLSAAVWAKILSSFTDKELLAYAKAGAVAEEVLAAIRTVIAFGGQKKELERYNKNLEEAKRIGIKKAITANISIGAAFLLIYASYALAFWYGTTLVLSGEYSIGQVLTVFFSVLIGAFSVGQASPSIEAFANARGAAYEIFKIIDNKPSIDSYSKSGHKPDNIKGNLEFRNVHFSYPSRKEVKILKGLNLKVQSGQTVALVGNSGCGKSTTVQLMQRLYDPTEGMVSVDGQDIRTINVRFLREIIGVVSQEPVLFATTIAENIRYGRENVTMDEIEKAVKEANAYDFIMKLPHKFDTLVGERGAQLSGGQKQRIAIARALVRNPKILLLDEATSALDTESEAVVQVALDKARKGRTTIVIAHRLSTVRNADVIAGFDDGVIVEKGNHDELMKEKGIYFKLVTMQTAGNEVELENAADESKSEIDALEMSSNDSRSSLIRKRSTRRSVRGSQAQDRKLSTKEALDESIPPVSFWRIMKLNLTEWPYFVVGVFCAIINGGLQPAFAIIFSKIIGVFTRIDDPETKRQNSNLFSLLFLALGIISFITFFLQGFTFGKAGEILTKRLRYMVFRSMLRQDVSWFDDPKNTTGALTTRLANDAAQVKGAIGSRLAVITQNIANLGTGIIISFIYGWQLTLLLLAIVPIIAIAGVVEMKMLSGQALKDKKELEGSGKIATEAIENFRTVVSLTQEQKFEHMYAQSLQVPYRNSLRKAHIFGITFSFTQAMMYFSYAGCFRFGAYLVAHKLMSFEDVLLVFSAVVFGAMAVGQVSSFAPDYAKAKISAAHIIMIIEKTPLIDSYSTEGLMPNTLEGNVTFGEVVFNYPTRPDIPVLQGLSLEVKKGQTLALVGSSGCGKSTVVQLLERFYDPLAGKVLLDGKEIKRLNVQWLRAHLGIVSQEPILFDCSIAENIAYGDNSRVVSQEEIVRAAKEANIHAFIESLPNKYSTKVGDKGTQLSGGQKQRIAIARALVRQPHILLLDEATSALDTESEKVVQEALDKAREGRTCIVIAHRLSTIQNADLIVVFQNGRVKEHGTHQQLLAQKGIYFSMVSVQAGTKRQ

T1 sequence (P21447 whole entry): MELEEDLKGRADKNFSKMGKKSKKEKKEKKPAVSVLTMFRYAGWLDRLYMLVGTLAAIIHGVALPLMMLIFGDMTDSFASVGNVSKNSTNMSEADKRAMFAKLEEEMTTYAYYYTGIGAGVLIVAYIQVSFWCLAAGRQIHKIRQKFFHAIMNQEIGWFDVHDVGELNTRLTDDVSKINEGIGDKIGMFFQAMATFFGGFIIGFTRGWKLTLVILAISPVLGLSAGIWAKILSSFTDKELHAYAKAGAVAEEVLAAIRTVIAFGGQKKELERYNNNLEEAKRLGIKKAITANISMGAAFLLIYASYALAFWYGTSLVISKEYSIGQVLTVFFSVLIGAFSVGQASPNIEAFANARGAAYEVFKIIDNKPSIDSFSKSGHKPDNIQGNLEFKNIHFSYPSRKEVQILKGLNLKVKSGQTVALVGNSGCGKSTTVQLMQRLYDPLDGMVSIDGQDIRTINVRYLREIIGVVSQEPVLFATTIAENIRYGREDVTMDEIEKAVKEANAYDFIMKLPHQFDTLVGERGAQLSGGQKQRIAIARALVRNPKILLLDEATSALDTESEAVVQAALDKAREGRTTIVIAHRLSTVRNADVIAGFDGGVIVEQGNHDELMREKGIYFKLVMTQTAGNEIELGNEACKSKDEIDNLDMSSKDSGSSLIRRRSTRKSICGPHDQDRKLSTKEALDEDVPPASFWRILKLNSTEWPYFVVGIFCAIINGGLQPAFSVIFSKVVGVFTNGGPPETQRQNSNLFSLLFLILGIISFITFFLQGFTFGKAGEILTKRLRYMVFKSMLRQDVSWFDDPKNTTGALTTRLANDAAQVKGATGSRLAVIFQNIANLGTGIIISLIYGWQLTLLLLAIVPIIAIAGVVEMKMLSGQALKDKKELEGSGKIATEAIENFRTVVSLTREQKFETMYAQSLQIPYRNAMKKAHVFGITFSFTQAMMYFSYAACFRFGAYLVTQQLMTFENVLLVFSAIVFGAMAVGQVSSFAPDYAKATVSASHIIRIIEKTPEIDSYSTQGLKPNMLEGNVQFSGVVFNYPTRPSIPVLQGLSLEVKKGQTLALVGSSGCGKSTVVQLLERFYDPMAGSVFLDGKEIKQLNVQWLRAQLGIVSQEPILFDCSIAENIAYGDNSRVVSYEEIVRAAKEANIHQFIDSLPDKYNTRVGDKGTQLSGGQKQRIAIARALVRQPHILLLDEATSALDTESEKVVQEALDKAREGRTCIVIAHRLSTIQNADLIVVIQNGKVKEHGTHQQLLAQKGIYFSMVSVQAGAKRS

Row | Activity [1] | Activity [2] | Activity [3] | Activity [4] | Activity [5] | Activity [6] | Activity [7] | Activity [8] | SMILES
1 | substrate [+] | substrate [+] | substrate [+] | substrate [+] | substrate [+] | substrate [+] | substrate [+] | – | C=C[C@H]1C[N@@]2CC[C@H]1C[C@@H]2[C@@H](O)c1ccnc2ccc(OC)cc12 [QUINIDINE]
2 | – | – | – | – | – | – | – | substrate [+] | C[C@H]1O[C@@H](O[C@H]2[C@@H](O)C[C@H](O[C@H]3[C@@H](O)C[C@H](O[C@H]4CC[C@@]5(C)[C@H](CC[C@@H]6[C@@H]5C[C@@H](O)[C@]5(C)[C@@H](C7=CC(=O)OC7)CC[C@]65O)C4)O[C@@H]3C)O[C@@H]2C)C[C@H](O)[C@@H]1O [DIGOXIN]
